Data set [1] addresses human recombinant (HEK-293) adenosine A2A receptor. Conditions: read-out: Ki adenosine A2A, cited from earlier work.
The target in data set [2] is bovine striatal adenosine receptors. As to the kind of experiment: Displacement of [3H]-NECA (non-selective P1 ligand) binding to striatal membranes. (In general: In a radioligand displacement assay an active substance lowers the binding of a labelled ligand.)
For a further data set, the system named is Parkinson's disease. Conditions: 150 mg/day slow release oral, up to 12 weeks, cited from earlier work.
For data set [3] the following is noted: 150 mg/day slow release oral, after one week; 10080 min; cited from earlier work.
The conditions of data set [4]: human, in vivo; cited from earlier work.
Data set [5] concerns haloperidol-induced catalepsy. As to the kind of experiment: Haloperidol-induced catalepsy in the rat. The note with it: 0.1-10 mg/kg p.o. 6 h prior to testing; haloperidol 0.2 mg/kg i.p.
Data set [6] concerns mouse striatal and frontal cortex neurochemistry. Conditions: for dopamine or 5-HT neurochemistry and transmitter metabolites: (+)- versus (-)-enantiomer.
Another data set concerns the target adenosine A1 receptor. Conditions: read-out: Ki adenosine A1, cited from earlier work.
Another data set has as its system catalepsy. The note with it: cited from earlier work.
For data set [7], the target named is human recombinant (HEK-293) adenosine A3 receptor. The note with it: read-out: Ki adenosine A3; cited from earlier work.
In data set [8] the test system is haloperidol-induced catalepsy. Conditions: literature; cited from earlier work.

Like-named read-outs stand apart in the source and are kept apart here.

On to `CCNC(=O)[C@H]1O[C@@H](n2cnc3c(N)ncnc32)[C@H](O)[C@@H]1O` [NECA, 5'-N-ethylcarboxamidoadenosine], for which the Ki in [1] was […].

Turning to `CNC(=O)[C@H]1O[C@@H](n2cnc3c(N)ncnc32)[C@H](O)[C@@H]1O` [MECA, 5'-N-methylcarboxamidoadenosine], affinity in data set [2] was put at a Ki of 58 nM.

In the case of `Cn1c(=O)c2[nH]cnc2n(C)c1=O` [THEOPHYLLINE, theophylline], in the data set on Parkinson's disease (15 patients), the “mean objective disability scores” value was “significant improvements”. Further, the “patients reporting moderate or marked subjective improvement” value with Parkinson's disease (of 15 patients) is recorded as 11. For the same compound, the serum theophylline levels in data set [3] is on record as 4.44 mg/L.

Turning to `O[C@@H](c1cc(C(F)(F)F)nc2c(C(F)(F)F)cccc12)[C@H]1CCCCN1` [(-) enantiomer, (-)-(11S,2'R)-α-2-piperidinyl-2,8-bis(trifluoromethyl)-4-quinolinemethanol], the half life in data set [4] was 14.4 days. The “blocking of haloperidol-induced catalepsy” value in data set [5] is “capable of blocking haloperidol-induced catalepsy”. In addition, in [6] (100 mg/kg p.o., 24 h), the frontal cortex acetylcholine result is “unaffected”; the “striatal acetylcholine content, (-)- versus (+)-enantiomer” value is “significantly higher”; the “striatal acetylcholine content, post-hoc Duncan's test between enantiomers” value was “between the (+)-enantiomer and the (-)-enantiomer (p<0.01)”; the “striatal acetylcholine content, post-hoc Duncan's test versus vehicle” value was “significant difference between vehicle and the (-)-enantiomer (p<0.05)”. Further, in [6] (100 mg/kg p.o., 24 h), the “dopamine or 5-HT neurochemistry and transmitter metabolites” value is recorded as “No significant difference”. Moreover, the “acetylcholine release in striatum (suggested by FIG. 6)” value in data set [6] (inferred from tissue acetylcholine content) was “inhibits acetylcholine release in striatum”. In data set [2], this compound gave a Ki of 83 nM.

Regarding `CCn1c(=O)c2c(nc(/C=C/c3ccc(OC)c(OC)c3)n2C)n(CC)c1=O` [KW-6002], the figures for the Ki (at adenosine A1 receptor; in [1]) were 580 nM and 13 nM, respectively.

`CCCn1c(=O)c2c(nc(/C=C/c3ccc(OC)c(OC)c3)n2C)n(CCC)c1=O` [KF17837, (E)-8-(3,4-dimethoxystyryl)-1,3-dipropyl-7-methylxanthine]: the “anticataleptic effects of a subthreshold dose of L-DOPA plus benserazide” value with catalepsy (combination) was “potentiated”. Besides, in the data set on catalepsy (in vivo), the “catalepsy induced by haloperidol and reserpine” value is given as “reduced”. The “cataleptic responses induced by intracerebroventricular CGS 21680” value in the data set on catalepsy (oral administration) is on record as “significantly ameliorated”. The Ki is 390 nM on adenosine A1 receptor (comparative literature data) and 8 nM in [1] (comparative literature data).

Regarding `O[C@H](c1cc(C(F)(F)F)nc2c(C(F)(F)F)cccc12)[C@@H]1CCCCN1` [(+) enantiomer, (+)-(11R,2'S)-α-2-piperidinyl-2,8-bis(trifluoromethyl)-4-quinolinemethanol], in data set [6] (100 mg/kg p.o., 24 h), the frontal cortex acetylcholine entry is recorded as “unaffected”; the “dopamine or 5-HT neurochemistry and transmitter metabolites” value was “No significant difference”. In data set [2], this compound yielded an inhibitory constant (Ki) of 38000 nM.

Regarding `OC[C@H]1O[C@@H](n2cnc3c(NC4CCCCC4)ncnc32)[C@H](O)[C@@H]1O` [CHA], the Ki is 510 nM in [1] and 7700 nM in data set [7].

As to `N[C@@H](Cc1ccc(O)c(O)c1)C(=O)O` [L-DOPA], the “blocking of haloperidol-induced catalepsy” value in data set [8] is recorded as “block haloperidol-induced catalepsy”.

Usually Ki stands for a dissociation constant, usually derived from enzyme kinetics or from competition with a known ligand.

Source of the values: patent US6197788A, “(-)-mefloquine to block puringergic receptors and to treat movement or neurodegenerative disorders” (Vernalis Research Limited, priority 1997, dated 2001).
